Measured values published in ChEMBL document CHEMBL6083212, “The synthesis and bioactivities of ROCK2 inhibitors with 1,2-dithiolan-3-yl motif” (RSC Med Chem, 2024).
The source made the active and inactive calls. The calls are words filed in the database; no cut-off is given here.

How the values were obtained:
[1] = Antioxidant activity assessed as DPPH radical scavenging activity at 1 mM incubated for 30 mins by absorbance based analysis; assay type: functional
[2] = test system: BV-2; assay: Antiinflammatory activity in LPS-induced mouse BV-2 cells assessed as inhibition of IL-6 production at […] incubated for 24 hrs by ELISA analysis; assay type: functional; parameters: dose or concentration left out as unconfirmed
[3] = test system: BV-2; assay: Antiinflammatory activity in LPS-induced mouse BV-2 cells assessed as inhibition of TNF-alpha production at […] incubated for 24 hrs by ELISA analysis; assay type: functional; parameters: dose or concentration left out as unconfirmed
[4] = Cytotoxicity against mouse BV-2 cells by MTT assay; assay type: toxicity, cell-based; conditions: read-out: TC50 (the source's name)
[5] = AUC (0 to t) in Sprague-Dawley rat at 10 mg/kg, iv measured upto 24 hrs by LC-MS analysis; assay type: ADME, organism-based; conditions: in vivo
[6] = Apparent volume of distribution during terminal phase in Sprague-Dawley rat at 10 mg/kg, iv measured upto 24 hrs by LC-MS analysis; assay type: ADME, organism-based; conditions: in vivo
[7] = Cmax in Sprague-Dawley rat at 10 mg/kg, iv measured upto 24 hrs by LC-MS analysis; assay type: ADME, organism-based; conditions: in vivo
[8] = Drug metabolism in rat plasma assessed as 5-(1,1-dioxodithiolan-3-yl)pentyl 4-(5-isoquinolylsulfonyl)-1,4-diazepane-1-carboxylate metabolite formation at 10 mg/kg, iv; assay type: ADME, organism-based; conditions: in vivo
[9] = Tmax in Sprague-Dawley rat at 10 mg/kg, iv measured upto 24 hrs by LC-MS analysis; assay type: ADME, organism-based; conditions: in vivo
[10] = Apparent clearance during terminal phase in Sprague-Dawley rat at 10 mg/kg, iv measured upto 24 hrs by LC-MS analysis; assay type: ADME, organism-based; conditions: in vivo
[11] = AUC (0 to infinity) in Sprague-Dawley rat at 10 mg/kg, iv measured upto 24 hrs by LC-MS analysis; assay type: ADME, organism-based; conditions: in vivo
[12] = Acute toxicity in C57BL/6 mouse assessed as change in body weight at 50 mg/kg, iv measured for 14 days; assay type: organism-based; conditions: in vivo, 336 h, time 14 day
[13] = Drug metabolism in rat plasma assessed as 5-(1-oxodithiolan-3-yl)pentyl 4-(5-isoquinolylsulfonyl)-1,4-diazepane-1-carboxylate metabolite formation at 10 mg/kg, iv; assay type: ADME, organism-based; conditions: in vivo
[14] = Drug metabolism in rat plasma assessed as 5-(1,2-dioxodithiolan-3-yl)pentyl 4-(5-isoquinolylsulfonyl)-1,4-diazepane-1-carboxylate metabolite formation at 10 mg/kg, iv; assay type: ADME, organism-based; conditions: in vivo
[15] = Acute toxicity in C57BL/6 mouse assessed as change in mental state at 50 mg/kg, iv measured for 14 days; assay type: organism-based; conditions: in vivo, 336 h, time 14 day
[16] = Acute toxicity in C57BL/6 mouse assessed as change in organ index at 50 mg/kg, iv measured for 14 days; assay type: organism-based; conditions: in vivo, 336 h, time 14 day
[17] = AUC (0 to infinity) in Sprague-Dawley rat at 10 mg/kg, ip measured upto 24 hrs by LC-MS analysis; assay type: ADME, organism-based; conditions: in vivo
[18] = Apparent volume of distribution during terminal phase in Sprague-Dawley rat at 10 mg/kg, ip measured upto 24 hrs by LC-MS analysis; assay type: ADME, organism-based; conditions: in vivo, read-out: Vz/F
[19] = Apparent clearance during terminal phase in Sprague-Dawley rat at 10 mg/kg, ip measured upto 24 hrs by LC-MS analysis; assay type: ADME, organism-based; conditions: in vivo, read-out: CLz/F (converted)
[20] = Oral bioavailability in Sprague-Dawley rat at 10 mg/kg measured upto 24 hrs by LC-MS analysis; assay type: ADME, organism-based; conditions: in vivo
[21] = test system: Mus musculus; assay: Anti-inflammatory activity in CFA-induced acute arthritis C57BL/6 mouse model assessed as effect on foot swelling at 5 to 10 mg/kg, iv measured for 12 hrs; assay type: functional, organism-based; conditions: dose 5-10 mg/kg
[22] = Cmax in Sprague-Dawley rat at 10 mg/kg, ip measured upto 24 hrs by LC-MS analysis; assay type: ADME, organism-based; conditions: in vivo
[23] = AUC (0 to t) in Sprague-Dawley rat at 10 mg/kg, ip measured upto 24 hrs by LC-MS analysis; assay type: ADME, organism-based; conditions: in vivo
[24] = Tmax in Sprague-Dawley rat at 10 mg/kg, ip measured upto 24 hrs by LC-MS analysis; assay type: ADME, organism-based; conditions: in vivo

SMILES	Activity [1] [%]	inhibition [2]	inhibition [3]	CC50 [4] [µM]	also measured
CC(=O)Oc1ccc(/C=C/C(=O)N2CCCN(S(=O)(=O)c3cccc4cnccc34)CC2)cc1	29.2	26.3%	49.5%	> 100	
O=S(=O)(c1cccc2cnccc12)N1CCCN(C(c2ccc(F)cc2)c2ccc(F)cc2)CC1	22.7	inactive	inactive	62	
CC1(C)C=Cc2cc(/C=C/C(=O)N3CCN(S(=O)(=O)c4cccc5cnccc45)CC3)ccc2O1	25.4	inactive	39.2%	> 100	
O=S(=O)(c1cccc2cnccc12)N1CCN(C(c2ccccc2)c2ccccc2)CC1	26.5	inactive	25.8%	> 20	
O=S(=O)(c1cccc2cnccc12)N1CCCNCC1 [FASUDIL]	99	82.6%	30.1%		
O=C(OCCCCCC1CCSS1)N1CCCN(S(=O)(=O)c2cccc3cnccc23)CC1 (stereo unspecified)	91.4	86.7%	53.9%	> 100	AUC(0-t) at 24 h [5]: 1940 ng·h/mL; Vz/F [6]: 1.3 L/kg; Cmax [7]: 12200 ng/mL; Drug metabolism [8]: metabolite_detected; Tmax [9]: 12 min; CLz/F [10]: 93.3 mL/min/kg; AUC(0-inf) [11]: 1950 ng·h/mL; Activity [12]: Non-toxic; Drug metabolism [13]: metabolite_detected; Drug metabolism [14]: metabolite_detected; Activity [15]: Non-toxic; Activity [16]: Non-toxic
O=S(=O)(c1cccc2cnccc12)N1CCCN(C(c2ccccc2)c2ccccc2)CC1	22.4	inactive	inactive	> 100	
COc1cc(/C=C/C(=O)N2CCCN(S(=O)(=O)c3cccc4cnccc34)CC2)ccc1OCCCO[N+](=O)[O-]	19.1	6.42%	30.9%	> 100	
COc1cc(/C=C/C(=O)N2CCCN(S(=O)(=O)c3cccc4c(O)nccc34)CC2)ccc1OC(C)=O	48.7	25.9%	22.6%	> 20	
COc1cc(/C=C/C(=O)N2CCCN(S(=O)(=O)c3cccc4cnccc34)CC2)ccc1OC(C)=O	28.7	inactive	inactive	> 100	
COc1cc(/C=C/C(=O)N2CCCN(S(=O)(=O)c3cccc4cnccc34)CC2)ccc1O	93	inactive	0.08%	> 100	
COc1cc(/C=C/C(=O)N2CCCN(S(=O)(=O)c3cccc4cnccc34)CC2)ccc1OCCCCCCO[N+](=O)[O-]	24.3	56.1%	53.8%	> 100	
COc1cc(/C=C/C(=O)N2CCCN(S(=O)(=O)c3cccc4cnccc34)CC2)cc(OC)c1O	90.9	0.07%	34.5%	> 100	
COc1cc(/C=C/C(=O)N2CCCN(S(=O)(=O)c3cccc4cnccc34)CC2)cc(OC)c1OC(C)=O	22.7	35%	45.9%	> 100	
COc1cc(/C=C/C(=O)OCCCCCC2CCSS2)ccc1OC(C)=O (stereo unspecified)	26.1	inactive	inactive	> 100	
CC1(C)C=Cc2cc(C(=O)N3CCCN(S(=O)(=O)c4cccc5cnccc45)CC3)ccc2O1	48.7	inactive	31.5%	> 100	
O=C(CCCCC1CCSS1)N1CCN(C(c2ccccc2)c2ccccc2)CC1 (stereo unspecified)	50.5	49.6%	41%	63	
O=C(CCCCC1CCSS1)N1CCCN(S(=O)(=O)c2cccc3c(O)nccc23)CC1 (stereo unspecified)	24.4	inactive	inactive	> 100	
COc1cc(/C=C/C(=O)N2CCCN(S(=O)(=O)c3cccc4cnccc34)CC2)ccc1OCCCCCO[N+](=O)[O-]	25.3	48.5%	34.9%	> 100	
O=C(CCCCC1CCSS1)N1CCN(S(=O)(=O)c2cccc3cnccc23)CC1 (stereo unspecified)	51.2	inactive	9.02%	> 100	
O=S(=O)(c1cccc2cnccc12)N1CCN(C(c2ccc(F)cc2)c2ccc(F)cc2)CC1	23.4	inactive	inactive	> 20	
CC(=O)Oc1ccc(/C=C/C(=O)N2CCCN(S(=O)(=O)c3cccc4cnccc34)CC2)cc1OC(C)=O	82.4	22.6%	17.8%	44.2	
COc1cc(/C=C/C(=O)N2CCCN(S(=O)(=O)c3cccc4cnccc34)CC2)ccc1OCCO[N+](=O)[O-]	23.9	2.78%	45.8%	> 100	
CC(=O)Oc1ccccc1C(=O)OCCCCCC1CCSS1 (stereo unspecified)	28.5	27.8%	51.3%	9.19	
CC1(C)C=Cc2cc(/C=C/C(=O)N3CCCN(S(=O)(=O)c4cccc5cnccc45)CC3)ccc2O1	33.8	inactive	38.5%	64.4	
O=C(CCCCC1CCSS1)N1CCN(C(c2ccc(F)cc2)c2ccc(F)cc2)CC1 (stereo unspecified)	92	53.8%	70.7%	> 100	AUC(0-t) at 24 h [5]: 3350 ng·h/mL; Vz/F [6]: 0.7 L/kg; AUC(0-inf) [17]: 1660 ng·h/mL; Vd/F [18]: 6.1 L/kg; CL/F [19]: 102 mL/min/kg; Cmax [7]: 20000 ng/mL; Tmax [9]: 4.98 min; CLz/F [10]: 48.3 mL/min/kg; bioavailability [20]: 48.5%; AUC(0-inf) [11]: 3360 ng·h/mL; Activity [12]: Non-toxic; Activity [21]: Active; Activity [15]: Non-toxic; Cmax [22]: 9950 ng/mL; AUC(0-t) at 24 h [23]: 1630 ng·h/mL; Tmax [24]: 4.98 min; Activity [16]: Non-toxic
COc1cc(/C=C/C(=O)N2CCCN(S(=O)(=O)c3cccc4cnccc34)CC2)ccc1OCCCCO[N+](=O)[O-]	20.7	36.3%	57.5%	> 100	
